Measurements: PubChem BioAssay AID330 (DTP/NCI, 2004)
Values joined by “and” are separate entries in the source; they are usually repeats but may differ in a detail not shown here. Equal entries are not always repeated. Inconclusive results and toxic doses are left out. The calls were made as follows: active = survival T/C of 150% or more; inactive = T/C below 125% in these data.

Tested on: P388 leukemia ip, CD2F1 mice, survival T/C
Test: NCI In Vivo Anticancer Drug Screen. Data for tumor model P388 Leukemia (intraperitoneal) in CD2F1 (CDF1) mice
Details: endpoint: median survival time, higher = longer survival
Summary of the method: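 Mice carrying the transplanted tumor received test compound or vehicle. Survival was recorded in each group, and the value is the treated-group measurement divided by that of the vehicle-treated control group.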

[1] = dose: 25.0 mg/kg/injection, schedule: Q01DX009 (ip), vehicle: saline with Tween-80
[2] = dose: 50.0 mg/kg/injection, schedule: Q01DX009 (ip), vehicle: saline with Tween-80
[3] = dose: 100.0 mg/kg/injection, schedule: Q01DX009 (ip), vehicle: saline with Tween-80
[4] = dose: 100.0 mg/kg/injection, schedule: Q04DX003 (ip), vehicle: saline with Tween-80
[5] = dose: 100.0 mg/kg/injection, schedule: Q04DX002 (ip), vehicle: saline with Tween-80
[6] = dose: 200.0 mg/kg/injection, schedule: Q04DX002 (ip), vehicle: saline with Tween-80
[7] = dose: 50.0 mg/kg/injection, schedule: Q01DX005 (ip), vehicle: Klucel (hydroxypropylcellulose) (HPC)
[8] = dose: 100.0 mg/kg/injection, schedule: Q01DX005 (ip), vehicle: Klucel (hydroxypropylcellulose) (HPC)
[9] = dose: 200.0 mg/kg/injection, schedule: Q01DX005 (ip), vehicle: Klucel (hydroxypropylcellulose) (HPC)
[10] = dose: 50.0 mg/kg/injection, schedule: Q01DX009 (ip), vehicle: Klucel (hydroxypropylcellulose) (HPC)
[11] = dose: 100.0 mg/kg/injection, schedule: Q01DX009 (ip), vehicle: Klucel (hydroxypropylcellulose) (HPC)
[12] = dose: 200.0 mg/kg/injection, schedule: Q01DX009 (ip), vehicle: Klucel (hydroxypropylcellulose) (HPC)
[13] = dose: 50.0 mg/kg/injection, schedule: Q01DX005 (ip), vehicle: saline with Tween-80
[14] = dose: 100.0 mg/kg/injection, schedule: Q01DX005 (ip), vehicle: saline with Tween-80
[15] = dose: 200.0 mg/kg/injection, schedule: Q01DX005 (ip), vehicle: saline with Tween-80
[16] = dose: 60.0 mg/kg/injection, schedule: Q01DX005 (ip), vehicle: saline with Tween-80
[17] = dose: 120.0 mg/kg/injection, schedule: Q01DX005 (ip), vehicle: saline with Tween-80
[18] = dose: 240.0 mg/kg/injection, schedule: Q01DX005 (ip), vehicle: saline with Tween-80
[19] = dose: 6.25 mg/kg/injection, schedule: Q01DX009 (ip), vehicle: Klucel (hydroxypropylcellulose) (HPC)
[20] = dose: 12.5 mg/kg/injection, schedule: Q01DX009 (ip), vehicle: Klucel (hydroxypropylcellulose) (HPC)

Measured: T/C

Cc1ccc(C)c(N=Nc2ccc(O)cc2)c1
inactive: [1] 100 % of control | [2] 109 % of control | dose: 50.0 mg/kg/injection, schedule: Q04DX003 (ip), vehicle: saline with Tween-80 104 % of control | [3] 100 % of control | [4] 100 % of control

N#Cc1c(=O)[nH]nc2c3ccccc3c3ccccc3c12
inactive: [5] 92 % of control | [6] 95 % of control | dose: 400.0 mg/kg/injection, schedule: Q04DX002 (ip), vehicle: saline with Tween-80 96 % of control

CCOC(=O)NC(=S)c1cccn1C
inactive: [7] 98 % of control | [8] 103 % of control | [9] 105 % of control

O=C(Nc1cccc(Cl)c1)OCCN1CCNC1=S
inactive: [10] 116 % of control | [11] 106 % of control | [12] 105 % of control

c1ccc(C2Oc3ccccc3-c3nc4ccccc4cc32)cc1 (stereo not drawn)
inactive: [13] 106 % of control | [14] 111 % of control | [15] 100 % of control

CNC(=S)N/N=C(\C)c1ccco1
inactive: dose: 100.0 mg/kg/injection, schedule: Q01DX001 (ip), vehicle: saline 104 % of control | dose: 200.0 mg/kg/injection, schedule: Q01DX001 (ip), vehicle: saline 97 % of control | dose: 400.0 mg/kg/injection, schedule: Q01DX001 (ip), vehicle: saline 97 % of control

CCN(CC)c1ccc(/C=N\Nc2ccc([N+](=O)[O-])cn2)cc1
inactive: [13] 93 % of control | [14] 90 % of control | [15] 87 % of control

O=C1c2ccccc2C(=O)C(Cl)C1Cl (stereo not drawn)
inactive: dose: 1.56 mg/kg/injection, schedule: Q01DX009 (ip), vehicle: saline with Tween-80 100 % of control | dose: 3.13 mg/kg/injection, schedule: Q01DX009 (ip), vehicle: saline with Tween-80 101 % of control

CCOc1cc2c(cc1C(C)c1ccc(OC)cc1)OCO2 (stereo not drawn)
inactive: dose: 25.0 mg/kg/injection, schedule: Q01DX005 (ip), vehicle: distilled water + alcohol 96 % of control | dose: 50.0 mg/kg/injection, schedule: Q01DX005 (ip), vehicle: distilled water + alcohol 100 % of control and 119 % of control | dose: 100.0 mg/kg/injection, schedule: Q01DX005 (ip), vehicle: distilled water + alcohol 123 % of control | dose: 200.0 mg/kg/injection, schedule: Q01DX005 (ip), vehicle: distilled water + alcohol 92 % of control

Cc1cc[n+](C2C(=O)c3ccccc3C(=O)C2Nc2cc(Cl)ccc2Cl)cc1 (stereo not drawn)
inactive: [16] 106 % of control | [17] 108 % of control | [18] 105 % of control

CC1[C@@H]2C[C@@H]3O[C@@]34[C@H]3CCC5Cc6nc7c(nc6C[C@@]5(C)C3(O)CC(=O)[C@@]24CO[C@]12OC(C)(C)CC2O)CC1CC[C@@H]2C3=C[C@H]4O[C@@]5(O[C@@](C)(CO)C[C@@H]5O)C(C)[C@@]4(O)[C@]3(C)[C@@H](O)CC2[C@]1(C)C7 (stereo partly drawn)
inactive: dose: 12.5 micrograms/kg/injection, schedule: Q01DX009 (ip), vehicle: saline + alcohol 107 % of control | dose: 25.0 micrograms/kg/injection, schedule: Q01DX009 (ip), vehicle: saline + alcohol 109 % of control | dose: 50.0 micrograms/kg/injection, schedule: Q01DX009 (ip), vehicle: saline + alcohol 114 % of control | dose: 100.0 micrograms/kg/injection, schedule: Q01DX009 (ip), vehicle: saline + alcohol 116 % of control

CC1=C(C)C(=O)C(C(C)(C)CC(=O)Sc2ncnc3nc[nH]c23)=C(C)C1=O
inactive: [5] 97 % of control | [6] 99 % of control

O=C1OC(C(Cl)(Cl)Cl)NC1Cc1ccccc1 (stereo not drawn)
inactive: [2] 107 % of control | [3] 103 % of control | dose: 200.0 mg/kg/injection, schedule: Q01DX009 (ip), vehicle: saline with Tween-80 110 % of control

COc1ccc2nc3cc(Cl)ccc3c(NCCCCNc3c4ccc(Cl)cc4nc4ccc(OC)nc34)c2n1
inactive: [4] 102 % of control | dose: 200.0 mg/kg/injection, schedule: Q04DX003 (ip), vehicle: saline with Tween-80 118 % of control

COc1cc2c(cc1C(C)=O)C=CC(C)(C)O2
inactive: dose: 22.5 mg/kg/injection, schedule: Q01DX005 (ip), vehicle: Klucel (hydroxypropylcellulose) (HPC) 100 % of control | dose: 45.0 mg/kg/injection, schedule: Q01DX005 (ip), vehicle: Klucel (hydroxypropylcellulose) (HPC) 100 % of control | dose: 90.0 mg/kg/injection, schedule: Q01DX005 (ip), vehicle: Klucel (hydroxypropylcellulose) (HPC) 94 % of control | dose: 180.0 mg/kg/injection, schedule: Q01DX005 (ip), vehicle: Klucel (hydroxypropylcellulose) (HPC) 98 % of control

Cn1c(=S)[nH]c2sc3c(c2c1=O)CCC3
inactive: [16] 96 % of control | [17] 93 % of control | [18] 89 % of control

CCCCCC1=C/N\C(C#N)=C(C#N)/N=C/C(CCCCC)=C\N\C(C#N)=C(C#N)/N=C\1
inactive: [19] 93 % of control | [20] 93 % of control | dose: 25.0 mg/kg/injection, schedule: Q01DX009 (ip), vehicle: Klucel (hydroxypropylcellulose) (HPC) 93 % of control

O=C1CCC(N2C(=O)C3CCCCC3C2=O)C(=O)O1 (stereo not drawn)
inactive: [10] 94 % of control | [11] 108 % of control | [12] 99 % of control

CCCCC(=O)NN(Cn1c(=S)sc2ccccc21)Cn1c(=S)sc2ccccc21
inactive: dose: 1.56 mg/kg/injection, schedule: Q01DX009 (ip), vehicle: Klucel (hydroxypropylcellulose) (HPC) 88 % of control | dose: 3.12 mg/kg/injection, schedule: Q01DX009 (ip), vehicle: Klucel (hydroxypropylcellulose) (HPC) 106 % of control and 88 % of control | [19] 100 % of control and 86 % of control and 93 % of control | [20] 90 % of control and 97 % of control | [10] 88 % of control and 91 % of control

CC(=O)/C(=C(\c1ccccc1)N1CCOCC1)N1CCOCC1
inactive: [7] 99 % of control | [8] 100 % of control | [9] 107 % of control

c1ccc(CCN2CCC3(CC2)COCc2ccccc23)cc1
inactive: dose: 100.0 mg/kg/injection, schedule: Q01DX001 (ip), vehicle: saline with Tween-80 96 % of control

CCOc1cc2c(cc1C(C)c1ccc(O)cc1)OCO2 (stereo not drawn)
inactive: dose: 50.0 mg/kg/injection, schedule: Q01DX005 (ip), vehicle: distilled water + Tween-80 102 % of control | dose: 100.0 mg/kg/injection, schedule: Q01DX005 (ip), vehicle: distilled water + Tween-80 105 % of control | dose: 200.0 mg/kg/injection, schedule: Q01DX005 (ip), vehicle: distilled water + Tween-80 109 % of control

O=[N+]([O-])c1ccc(Cl)c2c([N+](=O)[O-])cccc12
inactive: [2] 102 % of control | [3] 110 % of control

Cc1cc(C)c(S(=O)(=O)O)c(C)c1Nc1ccc(Nc2c(C)cc(C)c(S(=O)(=O)O)c2C)c2c1C(=O)c1ccccc1C2=O
inactive: [2] 92 % of control | [3] 91 % of control

O=S(=O)(Nc1ccc(Cl)c(C(F)(F)F)c1)c1ccc(F)cc1
inactive: [13] 100 % of control | [14] 91 % of control | [15] 98 % of control

O=[N+]([O-])c1ccccc1NN=NCCCl
inactive: dose: 3.12 mg/kg/injection, schedule: Q01DX005 (ip), vehicle: Klucel (hydroxypropylcellulose) (HPC) 112 % of control | dose: 6.25 mg/kg/injection, schedule: Q01DX005 (ip), vehicle: Klucel (hydroxypropylcellulose) (HPC) 120 % of control | dose: 25.0 mg/kg/injection, schedule: Q01DX005 (ip), vehicle: Klucel (hydroxypropylcellulose) (HPC) 120 % of control

CCOC(=O)Nc1ccc(C2SCCN2C(=O)NC)cc1 (stereo not drawn)
inactive: [16] 109 % of control | [17] 103 % of control | [18] 100 % of control

CCOP(=O)(OCC)C(=C(Cl)Cl)C(Cl)Cl
inactive: dose: 12.5 mg/kg/injection, schedule: Q01DX009 (ip), vehicle: saline with Tween-80 100 % of control and 104 % of control | [1] 105 % of control and 115 % of control | [2] 113 % of control and 118 % of control and 124 % of control | [3] 116 % of control

C=CCn1c(=O)oc2ccc(Cl)cc21
inactive: dose: 10.0 mg/kg/injection, schedule: Q01DX009 (ip), vehicle: saline with Tween-80 104 % of control | dose: 20.0 mg/kg/injection, schedule: Q01DX009 (ip), vehicle: saline with Tween-80 104 % of control | dose: 40.0 mg/kg/injection, schedule: Q01DX009 (ip), vehicle: saline with Tween-80 104 % of control
